pIC50: −log10 of the molar value.

What all share (assay type): cell-based
Assay [1] has as its target T1, novel potassium-dependent sodium-calcium exchanger consisting of the amino acid sequence of SEQ ID NO: 2 (Homo sapiens, UniProt Q8NFF2).
T1 construct: expressed in transfected cells
T1 sequence (Q8NFF2 39-622): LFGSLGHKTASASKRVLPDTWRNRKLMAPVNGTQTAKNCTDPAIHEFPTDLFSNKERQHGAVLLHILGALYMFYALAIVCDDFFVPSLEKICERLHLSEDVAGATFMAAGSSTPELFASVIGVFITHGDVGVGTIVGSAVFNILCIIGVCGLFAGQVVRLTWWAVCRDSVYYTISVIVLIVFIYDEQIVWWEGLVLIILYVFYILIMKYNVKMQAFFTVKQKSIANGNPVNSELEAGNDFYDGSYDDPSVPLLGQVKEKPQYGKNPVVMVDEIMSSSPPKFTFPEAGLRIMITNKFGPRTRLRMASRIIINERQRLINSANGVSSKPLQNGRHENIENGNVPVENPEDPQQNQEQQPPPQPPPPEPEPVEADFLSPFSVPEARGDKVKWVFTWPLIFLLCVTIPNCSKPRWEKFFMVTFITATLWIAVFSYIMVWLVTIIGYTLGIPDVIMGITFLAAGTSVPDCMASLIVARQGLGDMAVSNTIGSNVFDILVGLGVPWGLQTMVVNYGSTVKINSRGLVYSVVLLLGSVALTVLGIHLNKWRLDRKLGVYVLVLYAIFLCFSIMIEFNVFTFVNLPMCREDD
The experiment in a line: 45Ca uptake screening for inhibition of potassium-dependent sodium-calcium exchange activity in stable-expression Dede cells (SEQ ID NO: 2). Particulars: exchanger of SEQ ID NO: 2; conditions of Example 6. As for the experimental part: (§1) Sodium was incorporated into cells by changing the medium to an extracellular solution containing monensin [i.e., a solution containing 0.01 mmol/L monensin, 1 mmol/L ouabain, 146 mmol/L NaCl, 4 mmol/L KCl, 0.1 mmol/L CaCl2, 2 mmol/L MgCl2, 10 mmol/L glucose, 0.1% bovine serum albumin, and 10 mmol/L HEPES-Tris (pH=7.4)] and incubating the cells at 37° C. for 30 minutes. […]
(§2) The treated cells were washed with a washing solution containing 120 mmol/L choline chloride, 10 mmol/L LaCl3, and 10 mmol/L HEPES-Tris (pH=7.4) to remove calcium ions not incorporated, and then an intracellular calcium ion radioactivity was measured and analyzed by a liquid scintillation counter. In the HEK293 cells, Dede cells, or CHO-dhfr^− cells expressing the polypeptide consisting of the amino acid sequence of SEQ ID NO: 2 or 4, a higher radioactivity of approximately two times that obtained in the case of the extracellular solution A was measured when using the extracellular solution B (extracellular solution in which sodium was replaced with choline). Further, higher radioactivities of approximately five times and approximately ten times that obtained in the case of the extracellular solution A were measured when using the extracellular solutions C and D (extracellular solution containing potassium), respectively. […]

Assay [2] addresses T2, novel potassium-dependent sodium-calcium exchanger consisting of the amino acid sequence of SEQ ID NO: 4 (Homo sapiens, UniProt Q8NFF2).
T2 construct: expressed in transfected cells
T2 sequence (Q8NFF2 39-603 isoform Q8NFF2-3): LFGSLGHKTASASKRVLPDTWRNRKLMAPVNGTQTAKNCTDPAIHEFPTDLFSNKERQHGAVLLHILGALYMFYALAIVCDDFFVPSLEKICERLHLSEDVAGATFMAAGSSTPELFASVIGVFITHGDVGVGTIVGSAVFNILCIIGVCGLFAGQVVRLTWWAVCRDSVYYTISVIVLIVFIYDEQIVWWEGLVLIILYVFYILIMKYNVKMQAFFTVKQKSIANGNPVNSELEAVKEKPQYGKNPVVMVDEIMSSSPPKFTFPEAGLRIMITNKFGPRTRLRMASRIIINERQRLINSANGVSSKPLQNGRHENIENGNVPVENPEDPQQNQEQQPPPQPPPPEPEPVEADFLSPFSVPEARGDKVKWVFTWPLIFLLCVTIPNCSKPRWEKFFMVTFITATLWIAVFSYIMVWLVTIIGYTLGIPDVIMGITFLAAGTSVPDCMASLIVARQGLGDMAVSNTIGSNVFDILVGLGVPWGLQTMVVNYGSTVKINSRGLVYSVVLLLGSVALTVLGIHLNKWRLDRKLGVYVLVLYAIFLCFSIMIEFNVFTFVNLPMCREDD
As to the kind of experiment: 45Ca uptake screening for inhibition of potassium-dependent sodium-calcium exchange activity in stable-expression Dede cells (SEQ ID NO: 4). The following applies: exchanger of SEQ ID NO: 4; conditions of Example 6. How it is done:
as §1, §2

Assay [3] has as its system human peripheral polymorphonuclear leukocytes (PMNs). As to the kind of experiment: fMLP-stimulated migration test of PMNs in Transwell chemotaxis chamber. The following applies: for Number of migrating cells (relative value): 100 nmol/L fMLP, 37° C., 1 hour, DMSO = 100, average ± SD of three experiments; for migration of PMNs (result in words): 10, 30 and 100 μmol/L, fMLP-stimulated. How it is done:
The compounds obtained in Example 6 were evaluated using human peripheral polymorphonuclear leukocytes (PMNs). A blood sample was obtained by collecting blood from a healthy adult. A ficoll solution for separation (mono-poly resolving medium; Dainippon Pharmaceutical) was poured into each centrifuge tube, and a fresh blood component was laid on the ficoll solution. Centrifugation was carried out at 400×g at room temperature for 30 minutes to separate the upper layer (monocytes), the intermediate layer (PMNs), and the precipitate (erythrocytes). Each layer was collected in such a way that they were not mixed with each other, suspended in a phosphate buffered saline (PBS), and recentrifuged. Each collected layer was suspended in an RPMI1640 medium containing 0.2% bovine serum albumin (BSA), and used in the following experiment after counting the number of cells. A portion of the resulting PMN component was stained by a hematoxylin and eosin stain to confirm that neutrophils (approximately 95%) and eosinophils (approximately 5%) were contained.
A migration test was carried out using a 24-well disposable chemotaxis chamber Transwell 3 μm; Corning). Each test solution in which compound A or B (final concentration=10 μmol/L, 30 μmol/L, and 100 μmol/L) were contained in a medium (0.2% BSA, RPMI1640 medium) containing 100 nmol/L formylmethionyl-leucinyl-phenylalanine (fMLP) was prepared, and 1 mL of each test solution was added to each of the lower wells. The collected PMNs were added to each of the upper wells (2.0×10^6 cells/well; 0.2 mL) and incubated at 37° C. for 1 hour. The numbers of cells which migrated to the lower wells were counted by a hemacytometer. The test was independently repeated three times.
Each value shown in Table 1 is a relative value when the value obtained in the case of using DMSO instead of the test compounds is regarded as 100. Further, each value shown in Table 1 is an average and a standard deviation (SD) on the basis of three independent experiments.

On to `CS(=O)(=O)O.N=C(N)SCCc1ccc(OCc2ccc([N+](=O)[O-])cc2)cc1` [compound A, 2-[2-[4-(4-nitrobenzyloxy)phenyl]ethyl]isothiourea methanesulfonate], for which the values for the pIC50 in assay [1] and in assay [2] were 4.80 and 4.46, respectively. The “Number of migrating cells (relative value)” value in assay [3] (10 μmol/L compound) is recorded as 78.18 ± 25.93; in assay [3] (30 μmol/L compound), 29.50 ± 26.16; in assay [3] (100 μmol/L compound) it was 16.84 ± 10.78. Also, the “migration of PMNs (result in words)” value in assay [3] is “inhibited the migration of PMNs dose-dependently”.
Turning to `N/C(=N\C(=O)c1nc(Cl)c(N)nc1N)NCc1ccc(Cl)c(Cl)c1` [compound B, 3′,4′-dichlorobenzamil], the figures for the pIC50 in assay [1] and in assay [2] were 4.69 and 4.23, respectively. Besides, the “Number of migrating cells (relative value)” value in assay [3] (10 μmol/L compound) is reported as 100.68 ± 7.27; in assay [3] (30 μmol/L compound), 72.90 ± 15.85; in assay [3] (100 μmol/L compound), 44.58 ± 32.82. The “migration of PMNs (result in words)” value in assay [3] is given as “inhibited the migration of PMNs dose-dependently”.

As usually defined, the pIC50 is −log10 of the IC50, conventionally taken in molar units.

Values taken from patent US7264935B2, “Potassium-dependent sodium-calcium exchanger” (Astellas Pharma Inc., priority 2002, dated 2007).
